From the supplement of paper PMC9013687

Tests used:
[1] = system: Danio rerio embryo
Protocol: (§1)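 Zebrafish embryos (UFZ-OBI strain) were exposed from 2 hpf for 48 h (2 dpf) or 96 h (4 dpf) at 28 °C; spontaneous tail coiling was scored at 25 hpf. Morphological features from automated image analysis (FishInspector), heart rate and locomotor response were fitted with drc models. Quantal endpoints were dichotomised at 2.5 SD from controls and fitted with a log-logistic model; heart rate, pigmentation and STC were normalised to the replicate control mean. Betamethasone was tested as betamethasone dipropionate, diflorasone as diflorasone diacetate.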

[2] = system: Danio rerio embryo; assay: EC10 Any effect; higher = less potent
Protocol: as §1

[3] = system: Danio rerio embryo; assay: EC20 Head size_Decrease; higher = less potent; details: exposure time: 4 dpf
Protocol: as §1

[4] = system: Danio rerio embryo; assay: EC20 Any effect; higher = less potent
Protocol: as §1

[5] = system: Danio rerio embryo; assay: spontaneous tail coiling frequency (coils/min/embryo); higher = more spontaneous movement; details: 25 hpf
Protocol: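 Spontaneous tail coilings of zebrafish embryos exposed from 2 hpf were recorded at 24-25 hpf in 1-min videos and detected by a KNIME workflow from grey-value variance. Betamethasone was tested as the dipropionate, diflorasone as the diacetate.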

[6] = system: Danio rerio embryo; assay: EC10 Lack of SB; higher = less potent; details: exposure time: 4 dpf
Protocol: as §1

[7] = system: Danio rerio embryo; assay: EC10 Head size_Decrease; higher = less potent; details: exposure time: 4 dpf
Protocol: as §1

[8] = system: Danio rerio embryo; assay: EC10 Bladder size_Decrease; higher = less potent; details: exposure time: 4 dpf
Protocol: as §1

[9] = system: Danio rerio embryo; assay: EC20 Lack of SB; higher = less potent; details: exposure time: 4 dpf
Protocol: as §1

[10] = system: Danio rerio embryo; assay: EC20 Bladder size_Decrease; higher = less potent; details: exposure time: 4 dpf
Protocol: as §1

[11] = system: Danio rerio embryo; assay: EC50 Head size_Decrease; details: exposure time: 4 dpf
Protocol: as §1

[12] = system: Danio rerio embryo; details: exposure time: 4 dpf
Protocol: as §1

[13] = system: Danio rerio embryo; assay: EC50 Bladder size_Decrease; details: exposure time: 4 dpf
Protocol: as §1

[14] = system: Danio rerio embryo; assay: EC20 Body length_Decrease; higher = less potent; details: exposure time: 2 dpf
Protocol: as §1

[15] = system: Danio rerio embryo; assay: EC50 Body length_Decrease; details: exposure time: 2 dpf
Protocol: as §1

[16] = system: Danio rerio embryo; assay: EC10 Body length_Decrease; higher = less potent; details: exposure time: 2 dpf
Protocol: as §1

[17] = system: Danio rerio embryo; assay: EC10 Pigmentation decrease; higher = less potent; details: exposure time: 4 dpf
Protocol: as §1

[18] = system: Danio rerio embryo; assay: EC50 Pericard size_Increase
Protocol: as §1

[19] = system: Danio rerio embryo; assay: EC10 Pericard size_Increase; higher = less potent; details: exposure time: 2 dpf
Protocol: as §1

[20] = system: Danio rerio embryo; assay: EC20 Pericard size_Increase; higher = less potent
Protocol: as §1

[21] = system: Danio rerio embryo; assay: EC20 Pigmentation decrease; higher = less potent; details: exposure time: 4 dpf
Protocol: as §1

[22] = system: Danio rerio embryo; assay: EC10 Eye-jaw distance_Decrease; higher = less potent; details: exposure time: 4 dpf
Protocol: as §1

[23] = system: Danio rerio embryo; assay: EC20 Eye-jaw distance_Decrease; higher = less potent; details: exposure time: 4 dpf
Protocol: as §1

[24] = system: Danio rerio embryo; assay: EC50 Eye-jaw distance_Decrease; details: exposure time: 4 dpf
Protocol: as §1

COc1cccc2c1C(=O)c1c(O)c3c(c(O)c1C2=O)C[C@@](O)(C(C)=O)C[C@@H]3O[C@H]1C[C@H](N)[C@H](O)[C@H](C)O1 [Daunorubicin]
Details | EC10 Any effect [µM] | EC20 Any effect [µM] | EC50 Any effect [µM] | spontaneous tail coiling frequency
[1], exposure time: 2 dpf | – | – | 185 | –
[1], exposure time: 4 dpf | – | – | 90.6 | –
[2], exposure time: 2 dpf | 38.3 | – | – | –
[2], exposure time: 4 dpf | 85.9 | – | – | –
[4], exposure time: 2 dpf | – | 68.6 | – | –
[4], exposure time: 4 dpf | – | 87.6 | – | –
[5], 17.5 µM | – | – | – | 2.64
[5], 23.3 µM | – | – | – | 1.8
[5], 26.3 µM | – | – | – | 3.47
[5], 35 µM | – | – | – | 2.25
[5], 39.4 µM | – | – | – | 2.69
[5], 52.5 µM | – | – | – | 2.33
[5], 59.1 µM | – | – | – | 2.7
[5], 78.8 µM | – | – | – | 2.14
[5], 88.7 µM | – | – | – | 2.85

Details | EC10 Bladder size Decrease [µM] | EC10 Body length Decrease [µM] | EC10 Head size Decrease [µM] | EC10 Lack of SB [µM] | EC20 Bladder size Decrease [µM] | EC20 Body length Decrease [µM] | EC20 Head size Decrease [µM] | EC20 Lack of SB [µM] | EC50 Bladder size Decrease [µM] | EC50 Body length Decrease [µM] | EC50 Head size Decrease [µM] | EC50 Lack of SB [µM]
[3] | – | – | – | – | – | – | 19.7 | – | – | – | – | –
[6] | – | – | – | 13.3 | – | – | – | – | – | – | – | –
[7] | – | – | 12.4 | – | – | – | – | – | – | – | – | –
[8] | 9.82 | – | – | – | – | – | – | – | – | – | – | –
[9] | – | – | – | – | – | – | – | 24.9 | – | – | – | –
[10] | – | – | – | – | 17.5 | – | – | – | – | – | – | –
[11] | – | – | – | – | – | – | – | – | – | – | 43.4 | –
[12] | – | – | – | – | – | – | – | – | – | – | – | 72.3
[13] | – | – | – | – | – | – | – | – | 46.8 | – | – | –
[14] | – | – | – | – | – | 80.4 | – | – | – | – | – | –
[15] | – | – | – | – | – | – | – | – | – | 106 | – | –
[16] | – | 68.5 | – | – | – | – | – | – | – | – | – | –

CCC(=O)OCC(=O)[C@@]1(OC(=O)CC)[C@@H](C)C[C@H]2[C@@H]3CCC4=CC(=O)C=C[C@]4(C)[C@@]3(F)[C@@H](O)C[C@@]21C [betamethasone dipropionate]
Details | EC10 Any effect [µM] | EC20 Any effect [µM] | EC20 Pericard size Increase [µM] | EC50 Any effect [µM] | EC50 Pericard size Increase [µM] | spontaneous tail coiling frequency
[1], exposure time: 2 dpf | – | – | – | 0.882 | – | –
[1], exposure time: 4 dpf | – | – | – | 0.253 | – | –
[2], exposure time: 2 dpf | 0.000192 | – | – | – | – | –
[4], exposure time: 2 dpf | – | 0.00431 | – | – | – | –
[4], exposure time: 4 dpf | – | 0.000298 | – | – | – | –
[5], 0.02 µM | – | – | – | – | – | 2.32
[5], 0.099 µM | – | – | – | – | – | 1.86
[5], 0.198 µM | – | – | – | – | – | 2.45
[5], 0.991 µM | – | – | – | – | – | 3.42
[5], 1.24 µM | – | – | – | – | – | 3.65
[5], 2.48 µM | – | – | – | – | – | 4
[5], 3.964 µM | – | – | – | – | – | 2.3
[5], 4.95 µM | – | – | – | – | – | 3.4
[5], 9.909 µM | – | – | – | – | – | 1.97
[5], 9.91 µM | – | – | – | – | – | 3.29
[5], 19.82 µM | – | – | – | – | – | 3.34
[18], exposure time: 2 dpf | – | – | – | – | 10.1 | –
[18], exposure time: 4 dpf | – | – | – | – | 1.35 | –
[20], exposure time: 2 dpf | – | – | 0.437 | – | – | –
[20], exposure time: 4 dpf | – | – | 0.000209 | – | – | –

Details | EC10 Eye-jaw distance Decrease [µM] | EC10 Pericard size Increase [µM] | EC10 Pigmentation decrease [µM] | EC20 Eye-jaw distance Decrease [µM] | EC20 Pigmentation decrease [µM] | EC50 Eye-jaw distance Decrease [µM]
[17] | – | – | 1.61 | – | – | –
[19] | – | 0.07 | – | – | – | –
[21] | – | – | – | – | 8.44 | –
[22] | 0.003 | – | – | – | – | –
[23] | – | – | – | 0.064 | – | –
[24] | – | – | – | – | – | 13.1
